Results on 31 compounds are retold here after ChEMBL document CHEMBL1201862, “PubChem BioAssay data set” (2004).

The assay concerns BT-549. The assay is described as follows: NCI-60 cell line screen, 48 h.

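All cell lines were grown in 96-well plates and treated with compound for 48 hours. GI50 = concentration required for 50% inhibition of growth.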 Calls of active or inactive are those of the source. No stated cut-off is given here; in the data, active = GI50 up to about 1.1 µM and inactive = higher. Some results are limits rather than exact numbers.

As to `Nc1nc(Cl)c(N)c(NCC2(CO)CCCC2)n1`, the GI50 was 50.5 µM (inactive).

In the case of `N#CCCN(CCC#N)c1ccc(C(=N/c2ccc(Cl)cc2)/N=N/c2ccccc2)cc1`, the GI50 was 17.5 µM (inactive).

As to `O=C1CC2(CCNCC2)C(=O)N1N1CCOCC1`, the GI50 is > 100 µM (inactive).

Regarding `C=CCn1c(=O)ccn(/C(=C/C(=O)OCC)C(=O)OCC)c1=O`, the GI50 was 15.7 µM (inactive).

As for `N#CC(c1ccc(O)cc1)N1CCN(C(C#N)c2ccc(O)cc2)CC1` (stereo unspecified), the GI50 is > 72.3 µM (inactive).

For `CCOC(=O)Nn1c(CC#N)nnc1Cc1ccccc1`, the GI50 was > 100 µM (inactive).

Take `CCc1cc(Cc2cc(CC)c(NC(=O)C(=O)CC(=O)c3sc(-c4cccnc4)nc3C)c(CC)c2)cc(CC)c1NC(=O)C(=O)CC(=O)c1sc(-c2cccnc2)nc1C`: the GI50 is > 100 µM (inactive).

Consider `N#CC1CCCC2SC(F)(F)C(F)(F)C12` (stereo unspecified), for which the GI50 is > 100 µM (inactive).

As to `CC(C)[C@H]1NC(=O)[C@H]2N=C(S[C@H]2C)[C@@H]2CCCN2C(=O)[C@H](Cc2ccccc2)NC(=O)[C@@H]2CSC(=N2)[C@@H](Cc2ccccc2)NC(=O)[C@@H]2CSC1=N2`, the GI50 is > 50 µM (inactive).

`CC1(C)C[C@H](O)[C@H](O)[C@]23C(=O)O[C@H](O)[C@H]2C(C=O)=CC[C@@H]13`: the GI50 was > 100 µM (inactive).

`CC1(C)CC[C@]2(C(=O)O)CC[C@]3(C)[C@H](C(=O)C=C4[C@@]5(C)C=C(C#N)C(=O)C(C)(C)[C@@H]5CC[C@]43C)[C@@H]2C1` [BARDOXOLONE]: the GI50 is 0.731 µM (active).

For `O=C(CC(O)(C(F)(F)F)C(F)(F)F)C(c1ccccc1)C(O)(C(F)(F)F)C(F)(F)F` (stereo unspecified), the GI50 was 24 µM (inactive).

Turning to `O=C(Nc1ccccc1)c1cc(S(=O)(=O)NC2=Nc3ccc(Cl)cc3C(c3ccccc3)N2)c(SSc2cc(Cl)c(C(=O)Nc3ccccc3)cc2S(=O)(=O)NC2=Nc3ccc(Cl)cc3C(c3ccccc3)N2)cc1Cl` (stereo unspecified), the GI50 was > 100 µM (inactive).

For `COc1ccc(N/N=C2\CCOc3ccc(C)cc3C2=O)cc1`, the GI50 was 24.1 µM (inactive).

Regarding `CC(Oc1ccccc1Cl)C(=O)NN1C(=O)CSC1c1ccccc1` (stereo unspecified), the GI50 is > 100 µM (inactive).

For `CC(C)(C)c1ccc(O)c(CN(Cc2c(O)ccc3ccccc23)C2CCCCC2)c1`, the GI50 is 19.6 µM (inactive).

As for `COc1ccc(-n2nnc(C(N)=O)c2O)cc1`, the GI50 is > 100 µM (inactive).

Regarding `CN(CCN(C)C(=S)NN)C(=S)NN`, the GI50 was > 100 µM (inactive).

For `CC(=O)Oc1c2oc3cc(O)c(O)cc3c2c(OC(C)=O)c2oc3cc(O)c(O)cc3c12` [POLYOZELLIN], the GI50 was 17.1 µM (inactive).

Take `CCOC(=O)/C1=C(\C)N(c2ccc(C)cc2)C(=O)c2ccccc2C(=O)c2c(O)ccc(O)c21`: the GI50 was 27.7 µM (inactive).

Take `Cc1ccc(-c2nc(N/N=C/c3ccc(O)cc3)c3ccccc3n2)cc1`: the GI50 is 28 µM (inactive).

On to `N#Cc1nc(C#N)n(S(=O)(=O)c2ccccc2)c1NS(=O)(=O)c1ccccc1`, for which the GI50 was > 100 µM (inactive).

On to `Cc1cccc(/C=N/NC(=S)NC2CCCCC2)n1`, for which the GI50 is 31 µM (inactive).

In the case of `CC1=C(C)CC2C(=O)N(c3cc(C(C)(C)C)ccc3C(C)(C)C)C(=O)C2C1` (stereo unspecified), the GI50 is 24.7 µM (inactive).

As for `CN1Cc2ccccc2S(=O)(=O)n2cccc2C1=O`, the GI50 is > 100 µM (inactive).

On to `C=C1[C@H](OC(=O)C(C)C)[C@]23CC4(O)[C@@H]5[C@@]6(C)CCC[C@]57C([C@@H]2C[C@@]1(O)[C@H](O)[C@@H]73)N4C6`, for which the GI50 is > 100 µM (inactive).

As to `Cc1nc(Nc2ccc(Cl)c(Cl)c2)sc1C(=O)/C=C/c1ccc2c(c1)OCO2`, the GI50 is 21.5 µM (inactive).

As for `CCOc1ccc(C(c2c(O)c3ccccc3oc2=O)c2c(O)c3ccccc3oc2=O)cc1`, the GI50 was 67.8 µM (inactive).

With `O=S(=O)(O)c1ccc2c(/N=N/c3ccccc3Cl)c(O)ccc2c1`, the GI50 is > 100 µM (inactive).

On to `CN(C)Cc1cc(/N=N/c2ccccc2Cl)cc(CN(C)C)c1O`, for which the GI50 was 53.1 µM (inactive).

For the compound `CC(=O)NNc1nc(C)c(C(/C=C/c2ccc([N+](=O)[O-])cc2)=N/NC(N)=S)s1`, the GI50 is > 100 µM (inactive).
